Test results from patent US20030203850A1, “Transdifferentiation of pancreatic acinar cells” (McGill University, priority 2002, published 2003).
Ends that are not written are not given here.

Tested on: β-cell mass
Assay: INGAP peptide administration to hamsters: extra-islet acinar-associated and total β-cell mass
Assay type: in vivo
Conditions: 250 μg twice daily intra-peritoneal, female Syrian hamsters
Experimental: Female Syrian hamsters, 8 weeks of age, were randomly allocated to receive daily intra-peritoneal injections of INGAP peptide (Ile-Gly-Leu-His-Asp-Pro-Ser-His-Gly-Thr-Leu-Pro-Asn-Gly-Ser) (250 μg twice daily) or an equivalent volume of saline for either 10 (saline n=10, INGAP n=15) or 30 (S n=10, I n=15) days. At the end of the study period, animals were sacrificed by bleeding, and the pancreata excised through a midline laparotomy incision, for morphologic and morphometric analysis.
Samples were embedded in paraffin wax and 4 μm-thick sections were cut. The sections were processed for routine histology and immunostained for insulin, CK19 (1:750, 1:100 respective antibody dilution, Dako Corp., Santa Barbara, Calif.), glucagon, somatostatin and pancreatic polypeptide (1:750 antibody dilution, Biogenex, San Ramon, Calif., USA), using the AB complex method (streptavidin-biotin horseradish peroxidase complex, Dako Corp., Santa Barbara, Calif.), as described previously (22). A rabbit PDX-1 antibody directed against the NH2-terminus of the frog homologue of the protein encoded by the pdx-1 gene was used as the primary antibody (1:750 dilution; a gift from C. Wright, Vanderbilt University). Slides were countered stained with Harris hematoxylin (Sigma, St. Louis, Mo.).
Comparison between groups was done using 1-way ANOVA, 2-way ANOVA with post hoc one-tail t-test or X^2 analysis where appropriate. Data are presented as mean±SEM. Significance was accepted at the 5% level.
To determine β-cell mass (mg/pancreas), each gland was sectioned along its longitudinal axis to avoid any sampling bias due to regional variation in islet distribution and cell composition. Islet cross-sectional areas were traced manually with the aid of an Olympus BX60 microscope connected by video camera to a computer equipped with Image-pro Plus software version 4.0 (23). The total β-cell mass was calculated by a stereological equation, as described previously (22).
β-cell neogenesis and acinar-associated β-cell mass was analysed as described previously […]. Briefly, extra-islet acinar-associated β-cells/cell clusters were defined as insulin positive cells/cell clusters not associated with any other endocrine cells (α, δ, PP), completely surrounded by acinar tissue and a minimum of 100 μm from ductular tissue. The percent β-cell area being extra-islet acinar-associated was determined and multiplied by the weight of the excised organ to determine extra-islet acinar-associated β-cell mass.

With IGLHDPSHGTLPNGS [INGAP peptide] the “increase in extra-islet acinar-associated β-cell mass versus saline infused controls” value (10 days of treatment) was 180%, the “increase in total β-cell mass” value (10 days of treatment) was 44% and the “increase in total β-cell mass” value (30 days of treatment) was 31%. The “increase in extra-islet acinar-associated β-cell mass versus saline infused controls” value (30 days of treatment, p<0.05) was 200%.
